Data set [1] in a line: Pharmacokinetic study in mice (IV and PO), plasma. It counts as in vivo, mouse. As to conditions: for Rsq: Mouse Plasma, fit of NCA; for Cmax: read-out: Cmax (5 min). As to the method: Pharmacokinetic analysis of compounds was conducted following bolus intravenous (IV) or bolus oral (PO) gavage in mice. Female mice (C57BL/6) in the 17-26 g range were weighed, and then administered an individually prescribed dose volume based on body weight of formulated compound via the intravenous (IV; tail vein) or oral gavage (PO) route (IV 5 mL/kg; PO 10 mL/kg). At selected timepoints post administration, blood was collected into vials with anticoagulant, processed for plasma by centrifugation, and then kept frozen ([…]) until analysis.
The in-vivo study plasma samples were analyzed using Ultra Performance Liquid Chromatography (UPLC) with tandem mass spectrometry (MS/MS) detection in multiple reaction monitoring (MRM) mode. A generic bioanalytical method involving plasma sample extraction and cleanup by protein precipitation with acetonitrile was used followed by UPLC-MS/MS analysis.
A brief example of a generic bioanalytical UPLC-MS/MS method used for analysis of compounds in the in-vivo study plasma samples is as follows. Plasma samples were spiked with internal standard prior to extraction and cleanup by protein precipitation with ice cold acetonitrile containing 0.1% (v/v) ammonium hydroxide at a ratio of 3:1 (solvent:plasma) and centrifuged at 18213 rcf for 15 minutes at 4° C. to pellet precipitates. Aliquots of supernatants were transferred to a 96-well plate and evaporated to dryness at 40° C. under a stream of nitrogen gas. Samples were reconstituted in 50:50 acetonitrile/10 mM ammonium acetate buffer pH 8, mixed thoroughly and analyzed using Ultra Performance Liquid Chromatography (UPLC) with tandem mass spectrometry (MS/MS) detection in multiple reaction monitoring (MRM) mode. Matrix-matched calibration standards and quality control (QC) samples were prepared in naïve C57Bl/6 mouse plasma. The UPLC column used was Waters Acquity UPLC BEH C18 1.7 um, 2.1 mm×50 mm (with guard column). The UPLC mobile phase consisted of: Mobile phase A: 10 mM ammonium acetate in Water pH 8, and Mobile phase B: Acetonitrile. Separation was accomplished with a linear gradient of 5% mobile phase B to 95% mobile phase B in 2 min, and a flow rate of 0.35 mL/min. The MS/MS data acquisition was accomplished using 3 MRM Transitions in ESI+ mode. Parent ion mass 508.37 m/z-to-Daughter ions (m/z) 117.05, 232.13 and 270.22. The quantitation of concentrations in test samples was achieved by matrix-matched calibration with normalization using an internal standard. Data acquisition and analysis were performed using Waters MassLynx software with TargetLynx application manager.
Estimation of PK parameters was performed using independent noncompartmental model method by PHOENIX WinNonlin software.

Data set [2] has as its system FaDu tumour xenograft. Briefly: Clonogenic Survival, FaDu tumour xenograft-bearing Rag2M mice, compound ± radiation (CS-ER). The data set is classed as in vivo, mouse. As to the method: FaDu tumour xenograft-bearing Rag2M mice were treated with single administrations of test compounds at indicated doses±radiation as indicated, at time 0.
Mice were irradiated at 1 h post compound administration (unless otherwise indicated), with 300 KV X-rays and a 10 mA current from a Precision XRAD 300 machine (USA) with a beam-hardening filter (2 mm Al+0.25 mm Cu+0.75 mm Sn) and an adjustable site to specimen distance (SSD) at a dose of 8-10 Gy, delivered at a rate of ˜1.05 Gy/min.
Mice were terminated at times after irradiation as indicated, and tumour tissues excised. A portion of tumour approximately 300-500 mg was briefly minced using sterile scissors and placed in a pre-weighed gentleMACS C tube (Miltenyi Biotec cat #130-093-237) and weighed with combined tumour+tube mass recorded. A 5 mL aliquot of enzyme cocktail comprising of trypsin/DNase/collagenase/EDTA-Na2 in PBS (1 mg/ml trypsin+0.26 mg/ml DNase+0.21 mg/ml collagenase+2 mM EDTA-Na2) was added to the tube, which is then run on the gentleMACS Dissociator disaggregation system. Tubes were then incubated at 37° C. and continually rotated for 20 min before again running on the gentleMACS Dissociator program. Samples were then diluted with 5 ml MEM medium containing 5% FBS and filtered (Falcon cell strainer 100 μm, cat #352360). After centrifugation (1100 rpm for 6 minutes at 4° C.) supernatant was aspirated and the cells resuspended in 4 ml cold growth medium (MEM+10% FBS)+50 ul DNase (5 mg/ml DNase solution). Cell numbers were counted from the same cell solution using a hemacytometer. Appropriate dilutions (control: 10,000 cells/ml; 8Gy: 400,000 cells/ml; drug+radiation treated; 500,000 cells/ml) were made and cells then plated in triplicate: control: 100 μl and 300 μl (1000 and 3000 cells/6 cm tissue culture plate); 8Gy: 30 μl, 105 μl and 350 μl (12000, 42000 cells/6 cm plates and 140000 cells/10 cm plate); drug+8Gy: 70 μl, 300p, 1.2 ml (35000 and 150000 cells/6 cm plates and 600000 cells/10 cm plates—only duplicate). Plates were incubated at 37° C. (in a 5% CO2, 5% O2 and balance N2 environment) for 14 days. For a final and accurate automated live-cell counting a solution of Hoechst33342 (0.01 mg/ml)+Propidium Iodide (0.004 mg/ml) in 0.9% saline was mixed with an appropriate cell number dilution of the samples in 96 well plates (50 ul staining solution+50 ul cell suspension of 10000 cells/ml) and images are taken of the wells and cell numbers are calculated by a computer program.
After 14 days plates were removed from the incubator, rinsed with PBS and stained with cold 2 g/L Malachite green oxalate salt solution (Sigma-Aldrich, cat #M6880) for 30 minutes at room temperature. Plates were rinsed with distilled water and dried. Pictures were obtained of the plates and colonies consisting of 50 or more cells were counted using a Stuart Scientific colony counter.
All plates with colonies were analyzed except when colony numbers were so high that the edges of individual colonies could not be determined accurately. Plating efficiency (PE) of each tumour sample was calculated first: PE is a ratio of the number of colonies to the number of cells seeded (sum of all the colonies countable in all the plates of the same sample divided by the sum of cells plated in the same plates). The PE of control tumours was averaged for the calculation of surviving fraction (SF): SF is based on the number of colonies formed in drug and/or radiation treated cells relative to that of untreated control (PE of treated tumor sample divided by PE of control). All treated data points were compared separately to the average of the controls. Finally a Clonogenic Survival Enhancement Ratio (CS-ER) was calculated: the SF of irradiated control groups were divided by the SF of treatment groups to determine treatment group-specific CS-ER values, and these were assigned scores based on defined response ranges: values>6=A, 4-6=B, <4=C.

[3] abbreviates: female, C57BL/6, mouse plasma, IV, 3 mg/kg.
Where [4] appears, read: female, C57BL/6, mouse plasma, PO, 10 mg/kg.
Where [5] appears, read: female, C57BL/6, po, mouse plasma, PC, 3 mg/kg.
Where [6] appears, read: female, C57BL/6, mouse plasma, IV, 1 mg/kg.

Each structure is given as a SMILES string. Like-named read-outs stand apart in the source and are kept apart here. Marks after values point to notes of the source that are not given here.

By AUC(0-t) is commonly meant exposure summed from dosing to a finite time, without extrapolation to infinity. One may read the Cmax as the peak of the concentration-time curve. As usually defined, the half-life is how long it takes for the measured level to halve. A low value points to rapid decline.

On to `O=C(COc1cnc(N[C@H]2CC[C@@H](Oc3nc(N4CCOCC4)cc4ncccc34)CC2)nc1)N1CCOCC1` [Compound 61, 1-Morpholino-2-((2-(((1s,4s)-4-((7-morpholino-1,6-naphthyridin-5-yl)oxy)cyclohexyl)amino)pyrimidin-5-yl)oxy)ethan-1-one], for which the Rsq was 0.97 in data set [1] (IV, 3 mg/kg) and 0.93 in data set [1] (PO, 10 mg/kg). This molecule also registered a F in data set [1] (Mouse, PO 10 mg/kg vs IV 3 mg/kg) of 72%. Besides, the values for the AUC(0-t) in data set [1] (setting [3]) and in data set [1] (setting [4]) were 5210 ng·h/mL and 12600 ng·h/mL, respectively. For the same molecule, the Cmax at 5 min in data set [1] (setting [3]) worked out at 4900 ng/mL; in data set [1] (setting [4]), 3510 ng/mL. Moreover, the half-life is 2.2 h in data set [1] (setting [3]) and 2.05 h in data set [1] (setting [4]). Moreover, the AUC(0-inf) in data set [1] (female, C57BL/6, mouse plasma, IV, 3 mg/kg, read-out: AUCINF_obs) amounted to 5340 ng·h/mL; in data set [1] (female, C57BL/6, mouse plasma, PO, 10 mg/kg, read-out: AUCINF_obs) it was 12600 ng·h/mL. Besides, the “AUC_% Extrap_obs” value amounted to 2.45% in data set [1] (mouse plasma, IV, 3 mg/kg) and 0.05% in data set [1] (mouse plasma, PO, 10 mg/kg). The Cl_obs is reported as 561.75 mL/h/kg in data set [1] (mouse plasma, IV, 3 mg/kg) and 795.88 mL/h/kg in data set [1] (mouse plasma, PO, 10 mg/kg). For the same molecule, the Vz_obs in data set [1] (mouse plasma, IV, 3 mg/kg) was found to be 1784.9 mL/kg; in data set [1] (mouse plasma, PO, 10 mg/kg), 2356.41 mL/kg. For the same molecule, the “CS-ER Range Score” value in data set [2] (30 mpk + 8 Gy, 2 h) was “C (<4=C)”; in data set [2] (30 mpk + 8 Gy, 4 h) it was “B (4-6=B)”.
Take `CN(C)C(=O)COc1cnc(N[C@H]2CC[C@@H](Oc3nc(N4CCOCC4)cc4ncccc34)CC2)nc1` [Compound 54, N,N-Dimethyl-2-((2-(((1s,4s)-4-((7-morpholino-1,6-naphthyridin-5-yl)oxy)cyclohexyl)amino)pyrimidin-5-yl)oxy)acetamide]: the figures for the AUC(0-t) in data set [1] (setting [5]) and in data set [1] (setting [6]) were 7650 ng·h/mL and 3700 ng·h/mL, respectively. Further, the Cmax at 5 min was 2220 ng/mL in data set [1] (setting [5]) and 2820 ng/mL in data set [1] (setting [6]). The half-life in data set [1] (setting [5]) is 2.33 h; in data set [1] (setting [6]) it was 1.69 h. Besides, the AUC(0-inf) in data set [1] (female, C57BL/6, po, mouse plasma, PC, 3 mg/kg, read-out: AUCINF—obs) was found to be 7660 ng·h/mL; in data set [1] (female, C57BL/6, mouse plasma, IV, 1 mg/kg, read-out: AUCINF—obs) it was 3710 ng·h/mL. The same molecule had a C0 in data set [1] (setting [6]) of 3310 ng/mL. Also, the “AUC—% Extrap—obs” value is reported as 0.10% in data set [1] (mouse plasma, IV, 1 mg/kg) and 0.07% in data set [1] (mouse plasma, PC, 3 mg/kg). Moreover, the Cl_obs in data set [1] (mouse plasma, IV, 1 mg/kg) is reported as 264 mL/h/kg; in data set [1] (mouse plasma, PC, 3 mg/kg) it was 358^b mL/h/kg. For the same molecule, the Vz_obs was 646 mL/kg in data set [1] (mouse plasma, IV, 1 mg/kg) and 1205^a mL/kg in data set [1] (mouse plasma, PC, 3 mg/kg). In addition, the F in data set [1] (mouse, PC, 3 mg/kg) was determined as 74%. In addition, the “CS-ER Range Score” value in data set [2] (100 mpk + 10 Gy, 0.5 h) was “B (4-6=B)”; in data set [2] (100 mpk + 10 Gy, 4 h) it was “A (values>6=A)”; in data set [2] (100 mpk + 10 Gy, 8 h), “B (4-6=B)”; in data set [2] (100 mpk + 10 Gy, 24 h) it was “A (values>6=A)”.
Take `O=C(COc1cnc(N[C@H]2CC[C@@H](Oc3nc(N4CCOCC4)cc4ncccc34)CC2)nc1)N1CCC1` [Compound 75, 1-(Azetidin-1-yl)-2-((2-(((1s,4s)-4-((7-morpholino-1,6-naphthyridin-5-yl)oxy)cyclohexyl)amino)pyrimidin-5-yl)oxy)ethan-1-one]: in data set [1] (setting [3]), the AUC(0-t) came out at 7960 ng·h/mL, the half-life was 1.67 h and the Cmax came out at 6020 ng/mL. Also, the AUC(0-inf) in data set [1] (female, C57BL/6, mouse plasma, IV, 3 mg/kg, read-out: AUCINF—obs) was 8170 ng·h/mL. In addition, in data set [1] (setting [4]), the exposure AUC(0-t) amounted to 18200 ng·h/mL, the half-life was 2.17 h and the Cmax worked out at 5590 ng/mL. In addition, the AUC(0-inf) in data set [1] (female, C57BL/6, mouse plasma, PO, 10 mg/kg, read-out: AUCINF—obs) amounted to 18200 ng·h/mL. For the same molecule, in data set [1] (mouse plasma, IV, 3 mg/kg), the “AUC—% Extrap—obs” value is 2.63%, the Cl_obs stood at 367.01 mL/h/kg and the Vz_obs was found to be 885.15 mL/kg. Besides, in data set [1] (mouse plasma, PO, 10 mg/kg), the “AUC—% Extrap—obs” value was 0.07%, the Cl_obs was 548.06 mL/h/kg and the Vz_obs is 1715.97 mL/kg. In data set [1] (mouse, PO, 10 mg/kg), this molecule showed an F of 69%. The “CS-ER Range Score” value in data set [2] (30 mpk + 8 Gy, 2 h) is “B B (4-6=B)”. For the same molecule, in data set [2] (30 mpk + 8 Gy, 4 h), the “CS-ER Range Score” value is “B B (4-6=B)”.

Source of the values: patent US20240239790A1, “7-Morpholino-1,6-Naphthyridin-5-yl Derivatives and Pharmaceutical Compositions Thereof Useful as DNA-PK Inhibitor” (adMare Therapeutics Society, priority 2021, published 2024).
